This assay concerns the target fully phosphorylated, mouse aERK2 enzyme (Mus musculus (Mouse), UniProt P63085). Briefly: Active ERK2 (aERK) IMAP-FP assay, condition 2. The format is biochemical. As to the method:
Active ERK2 (aERK) Assay: (Unless Indicated Otherwise, the Data Provided for aERK was obtained using Condition 1)
Activated ERK2 activity was determined in an IMAP-FP assay (Molecular Devices). […] Phosphorylation reactions were allowed to proceed for 40-45 minutes and were immediately quenched by the addition of 60 μL IMAP detection beads (1:1000 dilutions) in IMAP binding buffer. Plates were read on EnVision reader after 30 minutes binding equilibration.

Setting [1] is: aERK assay condition 2, 30 uM ATP, read-out: aERK IC50.
[2] abbreviates: active ERK2, read-out: aErk2 Ic50.

“And” between values parts separate entries of the source, which are not always exact repeats. Identical values can stand only once. Like-named read-outs stand apart in the source and are kept apart here.

Chain of fully phosphorylated, mouse aERK2 enzyme (P63085 whole entry): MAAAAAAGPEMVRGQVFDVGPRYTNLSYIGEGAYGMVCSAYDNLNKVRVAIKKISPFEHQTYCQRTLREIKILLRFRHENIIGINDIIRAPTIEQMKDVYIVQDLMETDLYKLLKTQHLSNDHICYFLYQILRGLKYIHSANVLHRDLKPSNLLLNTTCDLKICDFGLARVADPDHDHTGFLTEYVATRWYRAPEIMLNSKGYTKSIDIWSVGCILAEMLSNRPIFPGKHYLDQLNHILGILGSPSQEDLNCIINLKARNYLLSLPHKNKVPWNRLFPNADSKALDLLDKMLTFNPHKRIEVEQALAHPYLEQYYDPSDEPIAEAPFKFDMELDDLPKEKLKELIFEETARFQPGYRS

In the case of `CN(C)C(=O)C(c1ccccc1F)N1CCC[C@@H](NC(=O)c2ccc3[nH]nc(-c4ccncc4)c3c2)C1` (single isomer, unassigned) [N-((R)-1-((R or S)-2-(dimethylamino)-1-(2-fluorophenyl)-2-oxoethyl)piperidin-3-yl)-3-(pyridin-4-yl)-1H-indazole-5-carboxamide], the IC50 under setting [1] is 0.0264 µM.

Turning to `NC(=O)C(c1ccccc1F)N1CCC[C@@H](NC(=O)c2ccc3[nH]nc(-c4ccncc4)c3c2)C1` (single isomer, unassigned) [N-((R)-1-((R or S)-2-amino-1-(2-fluorophenyl)-2-oxoethyl)-piperidin-3-yl)-3-(pyridin-4-yl)-1H-indazole-5-carboxamide], under setting [1], the IC50 came out at 0.0722 µM.

As to `CNC(=O)C(c1ccccc1F)N1CCC[C@@H](NC(=O)c2ccc3[nH]nc(-c4ccncc4)c3c2)C1` (single isomer, unassigned) [drawing 501, N-((R)-1-((R or S)-1-(2-fluorophenyl)-2-(methyl-amino)-2-oxoethyl)piperidin-3-yl)-3-(pyridin-4-yl)-1H-indazole-5-carboxamide], the IC50 under setting [1] amounted to 0.175 µM.

For `CNC(=O)C(c1ccccc1F)N1CCC[C@@H](NC(=O)c2ccc3[nH]nc(-c4ccncc4)c3c2)C1` (single isomer, unassigned) [drawing 502, N-((R)-1-((S or R)-1-(2-fluorophenyl)-2-(methyl-amino)-2-oxoethyl)piperidin-3-yl)-3-(pyridin-4-yl)-1H-indazole-5-carboxamide], the concentration for half-maximal inhibition (IC50) under setting [1] is 0.0046 µM.

Turning to `NC(=O)C(c1c(F)cccc1F)N1CCC[C@@H](NC(=O)c2ccc3[nH]nc(-c4ccncc4)c3c2)C1` (single isomer, unassigned) [drawing 503, N-((R)-1-((R or S)-2-amino-1-(2,6-difluorophenyl)-2-oxoethyl)piperidin-3-yl)-3-(pyridin-4-yl)-1H-indazole-5-carboxamide], the IC50 under setting [1] stood at 0.222 µM.

Take `NC(=O)C(c1c(F)cccc1F)N1CCC[C@@H](NC(=O)c2ccc3[nH]nc(-c4ccncc4)c3c2)C1` (single isomer, unassigned) [drawing 504, N-((R)-1-((S or R)-2-amino-1-(2,6-difluorophenyl)-2-oxoethyl)piperidin-3-yl)-3-(pyridin-4-yl)-1H-indazole-5-carboxamide]: the IC50 under setting [1] amounted to 0.0353 µM.

As for `CNC(=O)C(c1c(F)cccc1F)N1CCC[C@@H](NC(=O)c2ccc3[nH]nc(-c4ccncc4)c3c2)C1` (single isomer, unassigned) [drawing 505, N-((R)-1-((R or S)-1-(2,6-difluorophenyl)-2-(methylamino)-2-oxoethyl)-piperidin-3-yl)-3-(pyridin-4-yl)-1H-indazole-5-carboxamide], the half-maximal inhibitory concentration (IC50) under setting [1] was 0.451 µM.

Consider `CNC(=O)C(c1c(F)cccc1F)N1CCC[C@@H](NC(=O)c2ccc3[nH]nc(-c4ccncc4)c3c2)C1` (single isomer, unassigned) [drawing 506, N-((R)-1-((S or R)-1-(2,6-difluorophenyl)-2-(methylamino)-2-oxoethyl)piperidin-3-yl)-3-(pyridin-4-yl)-1H-indazole-5-carboxamide], for which, under setting [1], the 50% inhibitory concentration (IC50) was determined as 0.0208 µM.

On to `CN(C)C(=O)C(c1c(F)cccc1F)N1CCC[C@@H](NC(=O)c2ccc3[nH]nc(-c4ccncc4)c3c2)C1` (single isomer, unassigned) [drawing 507, N-((R)-1-((R or S)-1-(2,6-difluorophenyl)-2-(dimethyl-amino)-2-oxoethyl)piperidin-3-yl)-3-(pyridin-4-yl)-1H-indazole-5-carboxamide], for which the IC50 under setting [1] came to 0.416 µM.

Consider `CN(C)C(=O)C(c1c(F)cccc1F)N1CCC[C@@H](NC(=O)c2ccc3[nH]nc(-c4ccncc4)c3c2)C1` (single isomer, unassigned) [drawing 508, N-((R)-1-((S or R)-1-(2,6-difluorophenyl)-2-(dimethyl-amino)-2-oxoethyl)piperidin-3-yl)-3-(pyridin-4-yl)-1H-indazole-5-carboxamide], for which the half-maximal inhibitory concentration (IC50) under setting [1] is 0.115 µM.

With `COc1cccc(F)c1CN1C[C@@H](NC(=O)c2ccc3[nH]nc(-c4ccnc(C)c4)c3c2)CC[C@@H]1C(=O)N1CC(O[Si](C)(C)C(C)(C)C)CO1` (stereo in doubt) [N-[(3S,6R)-6-[(4-{[tert-butyl(dimethyl)silyl]oxy}isoxazolidin-2-yl)carbonyl]-1-(2-fluoro-6-methoxybenzyl)-piperidin-3-yl]-3-(2-methylpyridin-4-yl)-1H-indazole-5-carboxamide], the IC50 under setting [2] was 0.0725 µM and 0.144 µM.

Turning to `COc1cccc(F)c1CN1C[C@H](NC(=O)c2ccc3[nH]nc(-c4ccnc(C)c4)c3c2)CC[C@H]1C(=O)N1CCN(C(=O)OC2(C)CC2)CC1` [1-methylcyclopropyl 4-{[(2S,5R)-1-(2-fluoro-6-methoxybenzyl)-5-({[3-(2-methylpyridin-4-yl)-1H-indazol-5-yl]carbonyl}amino)piperidin-2-yl]carbonyl}piperazine-1-carboxylate], the IC50 under setting [2] was determined as 0.0221 µM.

Consider `COc1cccc(F)c1CN1C[C@H](NC(=O)c2ccc3[nH]nc(-c4ccnc(C)c4)c3c2)CC[C@H]1C(=O)N1CCN(C(=O)OC(C)C)CC1` [1-methylethyl 4-{[(2S,5R)-1-(2-fluoro-6-methoxybenzyl)-5-({[3-(2-methylpyridin-4-yl)-1H-indazol-5-yl]carbonyl}amino)piperidin-2-yl]carbonyl}piperazine-1-carboxylate], for which, under setting [2], the half-maximal inhibitory concentration (IC50) amounted to 0.0191 µM.

Turning to `COc1cccc(F)c1CN1CCC[C@@H](NC(=O)c2ccc3[nH]nc(C4=CCS(=O)(=O)CC4)c3c2)C1` [3-(1,1-dioxido-3,6-dihydro-2H-thiopyran-4-yl)-N-[(3R)-1-(2-fluoro-6-methoxy-benzyl)piperidin-3-yl]-1H-indazole-5-carboxamide], under setting [1], the IC50 came out at 0.0084 µM.

`Cc1cc(-c2n[nH]c3ccc(C(=O)N[C@@H]4CC[C@@H](C(=O)Nc5nccs5)N(CCc5ccccc5)C4)cc23)ccn1` [3-(2-methylpyridin-4-yl)-N-[(3R,6S)-1-(2-phenylethyl)-6-(1,3-thiazol-2-ylcarbamoyl)-piperidin-3-yl)-1H-indazole-5-carboxamide]: the IC50 under setting [2] turned out to be 0.133 µM.

With `COc1cccc(F)c1CN1CCC[C@@H](NC(=O)c2ccc3[nH]nc(C4=CCOCC4)c3c2)C1` [3-(3,6-dihydro-2H-pyran-4-yl)-N-[(3R)-1-(2-fluoro-6-methoxy-benzyl)piperidin-3-yl]-1H-indazole-5-carboxamide], under setting [1], the IC50 was 0.0013 µM.

For `COC(=O)[C@@H](c1c(F)cccc1F)N1CCC[C@@H](NC(=O)c2ccc3[nH]nc(-c4ccncc4)c3c2)C1` [(R)-methyl 2-(2,6-difluorophenyl)-2-((R)-3-(3-(pyridin-4-yl)-1H-indazole-5-carboxamido)piperidin-1-yl)acetate], under setting [1], the IC50 was 2.21 µM.

Consider `COc1cccc(F)c1CN1CCC[C@@H](NC(=O)c2ccc3[nH]nc(C4CCOCC4)c3c2)C1` [N-[(3R)-1-(2-fluoro-6-methoxybenzyl)piperidin-3-yl]-3-(tetrahydro-2H-pyran-4-yl)-1H-indazole-5-carboxamide], for which the 50% inhibitory concentration (IC50) under setting [1] stood at 0.195 µM.

`Cc1cc(-c2n[nH]c3ccc(C(=O)N[C@@H]4CC[C@@H](C(=O)N(C)C)N(Cc5c(F)cccc5F)C4)cc23)ccn1` [N-[(3R,6S)-1-(2,6-difluorobenzyl)-6-(dimethylcarbamoyl)piperidin-3-yl]-3-(2-methylpyridin-4-yl)-1H-indazole-5-carboxamide]: under setting [2], the 50% inhibitory concentration (IC50) was 0.074 µM.

In the case of `COc1cccc(F)c1CN1C[C@H](NC(=O)c2ccc3[nH]nc(-c4ccnc(C)c4)c3c2)CC[C@H]1C(=O)N1CCCCO1` [N-[(3R,6S)-1-(2-fluoro-6-methoxybenzyl)-6-(1,2-oxazinan-2-ylcarbonyl)piperidin-3-yl]-3-(2-methylpyridin-4-yl)-1H-indazole-5-carboxamide], the IC50 under setting [2] turned out to be 0.0096 µM.

Consider `COc1cccc(F)c1CN1C[C@H](NC(=O)c2ccc3[nH]nc(-c4ccnc(C)c4)c3c2)CC[C@H]1C(=O)Nc1nccs1` [N-[(3R,6S)-1-(2-fluoro-6-methoxybenzyl)-6-(1,3-thiazol-2-ylcarbamoyl)piperidin-3-yl]-3-(2-methylpyridin-4-yl)-1H-indazole-5-carboxamide], for which the IC50 under setting [1] was 0.014 µM.

In the case of `COc1cccc(F)c1CN1C[C@H](NC(=O)c2ccc3[nH]nc(-c4ccnc(C)c4)c3c2)CC[C@H]1C(=O)NN` [N-[(3R,6S)-1-(2-fluoro-6-methoxybenzyl)-6-(hydrazinocarbonyl)piperidin-3-yl]-3-(2-methylpyridin-4-yl)-1H-indazole-5-carboxamide], under setting [2], the IC50 amounted to 0.001 µM.

Take `COc1cccc(F)c1CN1C[C@H](NC(=O)c2ccc3[nH]nc(-c4ccnc(C)c4)c3c2)CC[C@H]1C(=O)N1CCCO1` [N-[(3R,6S)-1-(2-fluoro-6-methoxybenzyl)-6-(isoxazolidin-2-ylcarbonyl)piperidin-3-yl]-3-(2-methylpyridin-4-yl)-1H-indazole-5-carboxamide]: the IC50 under setting [2] is 0.0105 µM.

For the compound `CNC(=O)[C@@H]1CC[C@@H](NC(=O)c2ccc3[nH]nc(-c4ccnc(C)c4)c3c2)CN1Cc1c(F)cccc1OC` [N-[(3R,6S)-1-(2-fluoro-6-methoxybenzyl)-6-(methylcarbamoyl)piperidin-3-yl]-3-(2-methylpyridin-4-yl)-1H-indazole-5-carboxamide], the IC50 under setting [2] was found to be 0.0027 µM.

With `CNC(=O)[C@@H]1CC[C@@H](NC(=O)c2ccc3[nH]nc(-c4ccncc4)c3c2)CN1Cc1c(F)cccc1OC` [N-[(3R,6S)-1-(2-fluoro-6-methoxybenzyl)-6-(methylcarbamoyl)piperidin-3-yl]-3-pyridin-4-yl-1H-indazole-5-carboxamide], the IC50 under setting [2] was 0.0032 µM.

On to `COc1cccc(F)c1CN1C[C@H](NC(=O)c2ccc3[nH]nc(-c4ccnc(C)c4)c3c2)CC[C@H]1C(=O)N1CCOCC1` [N-[(3R,6S)-1-(2-fluoro-6-methoxybenzyl)-6-(morpholin-4-ylcarbonyl)piperidin-3-yl]-3-(2-methylpyridin-4-yl)-1H-indazole-5-carboxamide], for which the IC50 under setting [2] was determined as 0.0182 µM.

The IC50 is the point on the concentration scale where inhibition reaches its midpoint.

For the origin of these results see patent publication US8999957B2, “Heterocyclic compounds as ERK inhibitors” (Merck Sharp & Dohme Corp., priority 2010, dated 2015).
